# Results as given in publication PMC9886975, “Ligand recognition mechanism of the human relaxin family peptide receptor 4 (RXFP4)” (Nature Communications, 2023).
# “Also recorded” adds a separate entry of the source.
# Tests used:
# Format in all cases: cell-based
# RXFP4 Q205H = RXFP4 Q205H (Homo sapiens, UniProt Q8TDU9, Q205H); assay: cAMP accumulation, RXFP4 Q205H; conditions: HEK293T
# From the text: The full-length human RXFP4 (NCBI Reference Sequence: NM_181885.3) was cloned into a modified pFastBac vector (Invitrogen) with HA signal peptide to enhance receptor expression, followed by a 10× histidine tag and BRIL insertion at the N terminus. LgBiT subunit (Promega) was fused at the C terminus of RXFP4 connected by a 15-amino acid polypeptide linker. […] The engineered human Gαi2, Gβ1, bovine Gγ2, and scFv16 were cloned into the pFastBac vector (Invitrogen), respectively. For cAMP accumulation assay, human RXFP4 and RXFP3 (NCBI Reference Sequence: NM_016568.3) were cloned into pCMV6 constructs (OriGene Technologies). The mutant receptors were modified by site-directed mutagenesis in the setting of the WT constructs, with the primers designed by QuikChange Primer Design [QuickChange Primer Design (http://agilent.com.cn)] and carried out using Phanta Max Master (Vazyme). N-terminal Flag tag was added to both WT and mutant receptors for surface expression measurement. […]
# (§1) CHO-K1 (ATCC, Cat#CCL-61) cells stably expressing human RXFP4 (hRXFP4-CHO) or RXFP3 (hRXFP3-CHO) were maintained in DMEM/F12 (Gibco) supplemented with 10% (v/v) fetal bovine serum (FBS) and 2 mM L-glutamine. […] Following 24 h culturing, the transfected cells were ready for detection.
# (§2) Ligands were verified for their bioactivity in the beginning in hRXFP4-CHO, which were ready for use after 24 h culturing. […] The time-resolved fluorescence resonance energy transfer (TR-FRET) signals were detected by an EnVision multilabel plate reader (PerkinElmer) with the emission window ratio of 665 nm over 620 nm under 320 nm excitation. […]
# Inhibition of forskolin-induced cAMP accumulation was performed in HEK293T cells transiently transfected with WT and mutant receptors. All the mutant constructs were modified by single-point mutation in the setting of the WT receptor. cAMP accumulation data were analyzed using a three-parameter logistic equation to determine pEC50 and Emax values. Emax values for mutants are defined as the window between the maximal response and vehicle control (no ligand) and expressed as a percentage of the WT. […]
# human RXFP3 = assay: inhibition of forskolin-induced cAMP accumulation, WT RXFP3 (hRXFP3-CHO); conditions: binding and cAMP assays, Fig. 3e, Supplementary Fig. 2e–g
# Experimental: CHO-K1 (ATCC, Cat#CCL-61) cells stably expressing human RXFP4 (hRXFP4-CHO) or RXFP3 (hRXFP3-CHO) were maintained in DMEM/F12 (Gibco) supplemented with 10% (v/v) fetal bovine serum (FBS) and 2 mM L-glutamine. Human embryonic kidney 293 T cells containing SV40 large T-antigen (HEK293T, ATCC, Cat#64127316) were maintained in DMEM (Gibco) supplemented with 10% (v/v) FBS, 1 mM sodium pyruvate (Gibco), 100 units/mL penicillin and 100 μg/mL streptomycin at 37 °C in 5% CO2. For cAMP assays in mutants, HEK293T cells were seeded onto 6-well cell culture plates at a density of 7 × 10^5 cells per well. After overnight incubation, cells were transfected with WT or mutant receptors using Lipofectamine 3000 transfection reagent (Invitrogen). Following 24 h culturing, the transfected cells were ready for detection.
# as §2
# All functional study data were analyzed using GraphPad Prism 8.3 (GraphPad Software) and presented as means ± S.E.M. from at least three independent experiments. Dose-response curves were evaluated with a three-parameter logistic equation. […]
# RXFP4 L118S = biological target: T1, RXFP4 L118S (Homo sapiens, UniProt Q8TDU9, L118S); assay: cAMP accumulation, RXFP4 L118S; conditions: HEK293T
# T1 construct: RXFP4(1-374)-; expressed in transfected cells; host or cells: HEK293T, transient (pCMV6)
# T1 sequence (Q8TDU9 whole entry L118S): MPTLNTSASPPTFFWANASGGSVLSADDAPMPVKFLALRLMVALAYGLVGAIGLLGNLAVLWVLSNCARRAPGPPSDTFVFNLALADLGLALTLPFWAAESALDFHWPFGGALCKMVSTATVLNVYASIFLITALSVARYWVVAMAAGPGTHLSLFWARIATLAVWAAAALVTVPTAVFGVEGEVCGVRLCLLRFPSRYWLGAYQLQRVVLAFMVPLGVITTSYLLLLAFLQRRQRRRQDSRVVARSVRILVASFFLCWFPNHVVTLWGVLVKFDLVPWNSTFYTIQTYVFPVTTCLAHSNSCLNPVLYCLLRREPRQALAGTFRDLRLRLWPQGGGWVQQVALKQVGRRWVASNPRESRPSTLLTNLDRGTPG
# From the text: (§3) The full-length human RXFP4 (NCBI Reference Sequence: NM_181885.3) was cloned into a modified pFastBac vector (Invitrogen) with HA signal peptide to enhance receptor expression, followed by a 10× histidine tag and BRIL insertion at the N terminus. LgBiT subunit (Promega) was fused at the C terminus of RXFP4 connected by a 15-amino acid polypeptide linker. […] The engineered human Gαi2, Gβ1, bovine Gγ2, and scFv16 were cloned into the pFastBac vector (Invitrogen), respectively. For cAMP accumulation assay, human RXFP4 and RXFP3 (NCBI Reference Sequence: NM_016568.3) were cloned into pCMV6 constructs (OriGene Technologies). […]
# as §1, §2
# RXFP4 D104A = biological target: T2, RXFP4 D104A (Homo sapiens, UniProt Q8TDU9, D104A); assay: cAMP accumulation, RXFP4 D104A
# T2 construct: RXFP4(1-374)-; expressed in transfected cells; host or cells: HEK293T, transient (pCMV6)
# T2 sequence (Q8TDU9 whole entry D104A): as the sequence (Q8TDU9 whole entry L118S) above, with D104A, S118L counted along it
# From the text: as §3, §1, §2
# RXFP3 WT = biological target: T3, RXFP3 WT (Homo sapiens, UniProt Q9NSD7); assay: cAMP accumulation, WT RXFP3 (HEK293T); conditions: WT and all the five RXFP3 mutants
# T3 construct: RXFP3(1-469)-; expressed in transfected cells; host or cells: HEK293T, transient (pCMV6)
# T3 sequence (Q9NSD7 whole entry): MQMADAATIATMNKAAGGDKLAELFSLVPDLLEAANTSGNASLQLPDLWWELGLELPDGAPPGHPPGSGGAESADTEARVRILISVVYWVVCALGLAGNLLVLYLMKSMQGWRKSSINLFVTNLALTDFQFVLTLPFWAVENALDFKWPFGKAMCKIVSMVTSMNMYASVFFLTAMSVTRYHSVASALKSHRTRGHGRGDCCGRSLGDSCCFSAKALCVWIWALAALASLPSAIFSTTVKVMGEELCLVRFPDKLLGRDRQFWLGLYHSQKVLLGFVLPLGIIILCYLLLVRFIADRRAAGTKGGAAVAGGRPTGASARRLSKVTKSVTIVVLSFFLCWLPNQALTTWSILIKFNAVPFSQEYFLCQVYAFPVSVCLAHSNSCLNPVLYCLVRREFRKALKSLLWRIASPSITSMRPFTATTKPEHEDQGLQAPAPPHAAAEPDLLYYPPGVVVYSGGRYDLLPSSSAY
# From the text: as §3, §1, §2
# RXFP4 Q205A = biological target: T4, RXFP4 Q205A (Homo sapiens, UniProt Q8TDU9, Q205A); assay: cAMP accumulation, RXFP4 Q205A
# T4 construct: RXFP4(1-374)-; expressed in transfected cells; host or cells: HEK293T, transient (pCMV6)
# T4 sequence (Q8TDU9 whole entry Q205A): as the sequence (Q8TDU9 whole entry L118S) above, with S118L, Q205A counted along it
# From the text: as §3, §1, §2
# RXFP4 L118A = biological target: T5, RXFP4 L118A (Homo sapiens, UniProt Q8TDU9, L118A); assay: cAMP accumulation, RXFP4 L118A; conditions: HEK293T
# T5 construct: RXFP4(1-374)-; expressed in transfected cells; host or cells: HEK293T, transient (pCMV6)
# T5 sequence (Q8TDU9 whole entry L118A): as the sequence (Q8TDU9 whole entry L118S) above, with S118A counted along it
# From the text: as §3, §1, §2
# Sequence of RXFP4 Q205H (Q8TDU9 whole entry Q205H, the tested form may be a part): as the sequence (Q8TDU9 whole entry L118S) above, with S118L, Q205H counted along it
Compound,response (RXFP4 Q205H),"EC50 (RXFP4 Q205H; 1.5 μM forskolin, mean ± S.E.M., n = 3) [nM]",Emax (RXFP4 Q205H; mean ± S.E.M.) [% WT],cross-reactivity with RXFP3 (human RXFP3),response (RXFP4 L118S),EC50 (RXFP4 D104A) [nM],"Emax (RXFP4 D104A; HEK293T, mean ± S.E.M.) [% WT]",response (RXFP3 WT),EC50 (RXFP4 Q205A) [nM],"Emax (RXFP4 Q205A; HEK293T, mean ± S.E.M.) [% WT]",response (RXFP4 L118A)
"CCOc1cc2c(cc1OC)CCN(C(=O)N1CCOCC1)[C@H]2CCc1c[nH]c2ccc(OC)cc12 [DC591053, (S)-(7-ethoxy-6-methoxy-1-(2-(5-methoxy-1H-indol-3-yl)ethyl)−3,4-dihydroisoquinolin-2(1H)-yl)(morpholino)methanone]",more profound reduction for DC591053 than compound 4,676,25.10 ± 6.36,neither reacted with related RXFP3; also recorded: without observable cross-reactivity,,,,,,,
"CC[C@H](C)[C@@H]1NC(=O)[C@H](Cc2ccc(O)cc2)NC(=O)[C@H]([C@@H](C)CC)NC(=O)[C@H](C(C)C)NC(=O)[C@H]([C@@H](C)O)NC(=O)[C@H](CCCNC(=N)N)NC(=O)[C@H]([C@@H](C)CC)NC(=O)[C@H](Cc2ccc(O)cc2)NC(=O)[C@H](CCC(=O)O)NC(=O)[C@H](CC(C)C)NC(=O)CNC(=O)[C@@H](NC(=O)[C@H](CC(C)C)NC(=O)[C@H](CCCNC(=N)N)NC(=O)[C@@H](NC(=O)[C@H](CO)NC(=O)[C@H](CCC(=O)O)NC(=O)[C@@H](N)CCCCN)C(C)C)CSSC[C@@H]2NC(=O)[C@@H](NC(=O)[C@H](CC(C)C)NC(=O)[C@@H](NC(=O)[C@H](CCC(N)=O)NC(=O)[C@H](CC(C)C)NC(=O)[C@H](CC(=O)O)NC(=O)[C@@H](N)CCC(N)=O)[C@@H](C)O)CSSC[C@H](NC(=O)CNC(=O)[C@H](CC(=O)O)NC(=O)[C@H]([C@@H](C)O)NC2=O)C(=O)N[C@@H](CO)C(=O)N[C@@H](CCSC)C(=O)N[C@@H]([C@@H](C)O)C(=O)N[C@@H](CC(=O)O)C(=O)N[C@@H](CC(C)C)C(=O)N[C@@H](CO)C(=O)N[C@@H](C)C(=O)N[C@@H](CC(C)C)C(=O)N[C@H](C(=O)O)CSSC[C@@H](C(=O)N[C@@H](C)C(=O)N[C@@H](CO)C(=O)N[C@@H](CO)C(=O)N[C@@H](CCCNC(=N)N)C(=O)N[C@@H](Cc2c[nH]c3ccccc23)C(=O)O)NC1=O [INSL5, insulin-like peptide 5]",,,,,inactive,1.62,59.09 ± 6.41,inactive,3.98,50.94 ± 6.54,inactive
